Experiments:
Human plasma [1] = test: Human plasma anticoagulation, activated partial thromboplastin time (APTT); type: biochemical; conditions: concentration required to double the APTT, linear extrapolation
Protocol: (§1) Dog plasma and rat plasma is obtained from conscious mixed-breed hounds (either sex, Hazelton-LRE, Kalamazoo, Mich., U.S.A.) or from anesthetized male Sprague-Dawley rats (Harlan Sprague-Dawley, Inc., Indianapolis, Ind., U.S.A.) by venipuncture into 3.8 percent citrate. Fibrinogen is prepared from in-date ACD human blood as the fraction I-2 according to previous procedures and specifications. Smith, Biochem. J., 185, 1-11 (1980); and Smith, et al., Biochemistry, 11, 2958-2967 (1972). Human fibrinogen is also purchased as 98 percent pure/plasmin free from American Diagnostica, Greenwich, Conn. Coagulation reagents ACTIN, Thromboplastin, and Human plasma are from Baxter Healthcare Corp., Dade Division, Miami, Fla. Bovine thrombin from Parke-Davis ([…], Mich.) is used for coagulation assays in plasma.
(§2) Coagulation assay procedures are as previously described. Smith, et al., Thrombosis Research, 50, 163-174 (1988). A CoAScreener coagulation instrument (American LABor, Inc.) is used for all coagulation assay measurements. The prothrombin time (PT) is measured by adding 0.05 mL saline and 0.05 mL Thromboplastin-C reagent to 0.05 mL test plasma. The activated partial thromboplastin time (APTT) is measured by incubation of 0.05 mL test plasma with 0.05 mL Actin reagent for 120 seconds followed by 0.05 mL CaCl2 (0.02M). The thrombin time (TT) is measured by adding 0.05 mL saline and 0.05 mL thrombin (10 NIH units/mL) to 0.05 mL test plasma. The compounds of formula I are added to human or animal plasma over a wide range of concentrations to determine prolongation effects on the APTT, PT, and TT assays. Linear extrapolations are performed to estimate the concentrations required to double the clotting time for each assay.

factor Xa = biological target: T1, factor Xa (Homo sapiens, UniProt P00742); test: Serine protease selectivity, chromogenic substrate (Kass), factor Xa; type: biochemical; conditions: substrate N-Benzoyl-Ile-Glu-Gly-Arg-p-nitroanilide
T1 construct: Human factors X, Xa, IXa, XIa, and XIIa are purchased; purchased Enzyme Research Laboratories, South Bend, Ind
Protocol: (§3) The assay is carried out by mixing 50 μL buffer (0.03M Tris, 0.15M NaCl, pH 7.4) with 25 μL of bovine thrombin or human thrombin solution (0.21 mg/mL of thrombostat bovine thrombin, Parke-Davis, or purified human thrombin, Enzyme Research Laboratories, South Bend, Ind., at about 8 NIH units/mL, in the same buffer) and 25 μL of test compound in a solvent (in 50% aqueous methanol, v:v). The 150 μL of an aqueous solution of the chromogenic substrate (at 0.25 mg/mL) are added and the rates of hydrolysis of the substrate are measured by monitoring the reactions at 405 nm for the release of p-nitroaniline. Standard curves are constructed by plotting free thrombin concentration against hydrolysis rate. The hydrolysis rates observed with test compounds are then converted to "free thrombin" values in the respective assays by use of the standard curves. The bound thrombin (bound to test compound) is calculated by subtracting the amount of free thrombin observed in each assay from the known initial amount of thrombin used in the assay. The amount of free inhibitor in each assay is calculated by subtracting the number of moles of bound thrombin from the number of moles of added inhibitor (test compound).
(§4) Kass is calculated for a range of concentrations of test compounds and the mean value is reported in units of liter per mole.
(§5) By substantially following the procedures described above for human thrombin, and using other human blood coagulation system serine proteases and proteases of the fibrinolytic system with the appropriate chromogenic substrates, identified below, selectivity of the compounds of the present invention with respect to the coagulation factor serine proteases and with respect to the fibrinolytic system serine proteases are evaluated as well as their substantial lack of interference with serine proteases of the fibrinolytic system. Thrombin inhibitors preferably should spare fibrinolysis induced by urokinase, tissue plasminogen activator (t-PA) and streptokinase. This would be important to the therapeutic use of such agents as an adjunct to streptokinase, t-PA or urokinase thrombolytic therapy and to the use of such agents as an endogenous fibrinolysis-sparing (with respect to t-PA and urokinase) antithrombotic agent. In addition to the lack of interference with the amidase activity of the fibrinolytic proteases, such fibrinolytic system sparing can be studied by the use of human plasma clots and their lysis by the respective fibrinolytic plasminogen activators.
(§6) Human factors X, Xa, IXa, XIa, and XIIa are purchased from Enzyme Research Laboratories, South Bend, Ind.; human urokinase from Leo Pharmaceuticals, Denmark; and recombinant activated Protein C (aPC) is prepared at Eli Lilly and Co. substantially according to U.S. Pat. No. 4,981,952. Chromogenic substrates: N-Benzoyl-Ile-Glu-Gly-Arg-p-nitroanilide (for factor Xa); N-Cbz-D-Arg-Gly-Arg-p-nitroanilide (for factor IXa assay as the factor Xa substrate); Pyroglutamyl-Pro-Arg-p-nitroanilide (for Factor XIa and for aPC); H-D-Pro-Phe-Arg-p-nitroanilide (for factor XIIa); and Pyroglutamyl-Gly-Arg-p-nitroanilide (for urokinase); are purchased from KabiVitrum, Stockholm, Sweden, or from Midwest Biotech, Fishers, Ind. Bovine trypsin is purchased from Worthington Biochemicals, Freehold, N.J., and human plasma kallikrein from Kabi Vitrum, Stockholm, Sweden. Chromogenic substrate H-D-Pro-Phe-Arg-p-nitroanilide for plasma kallikrein is purchased from Kabi Vitrum, Stockholm, Sweden. N-Benzoyl-Phe-Val-Arg-p-nitroanilide, the substrate for human thrombin and for trypsin, is synthesized according to procedures described above for the compounds of the present invention, using known methods of peptide coupling from commercially available reactants or purchased from Midwest Biotech, Fishers, Ind.

Human plasma [2] = test: Human plasma anticoagulation, prothrombin time (PT); type: biochemical; conditions: concentration required to double the PT, linear extrapolation
Protocol: as §1, §2

Plasmin = biological target: T2, Plasmin (Homo sapiens, UniProt P00747); test: Serine protease selectivity, chromogenic substrate (Kass), plasmin; type: biochemical; conditions: substrate H-D-Val-Leu-Lys-p-nitroanilide
T2 construct: Human plasmin is purchased; purchased Boehringer Mannheim, Indianapolis, Ind
Protocol: as §3, §4, §5
(§7) Human plasmin is purchased from Boehringer Mannheim, Indianapolis, Ind.; nt-PA is purchased as single chain activity reference from American Diagnostica, Greenwich, Conn.; modified-t-PA6 (mt-PA6) is prepared at Eli Lilly and Company by procedure known in the art (See, Burck, et al., J. Biol. Chem., 265, […] (1990). Plasmin chromogenic substrate H-D-Val-Leu-Lys-p-nitroanilide and tissue plasminogen activator (t-PA) substrate H-D-Ile-Pro-Arg-p-nitroanilide are purchased from Kabi Vitrum, Stockholm, Sweden.

Trypsin = biological target: T3, Trypsin (Bos taurus, UniProt P00760); test: Serine protease selectivity, chromogenic substrate (Kass), trypsin; type: biochemical, bovine; conditions: substrate N-Benzoyl-Phe-Val-Arg-p-nitroanilide
T3 construct: Bovine trypsin is purchased; purchased Worthington Biochemicals, Freehold, N.J
T3 sequence (P00760 24-246): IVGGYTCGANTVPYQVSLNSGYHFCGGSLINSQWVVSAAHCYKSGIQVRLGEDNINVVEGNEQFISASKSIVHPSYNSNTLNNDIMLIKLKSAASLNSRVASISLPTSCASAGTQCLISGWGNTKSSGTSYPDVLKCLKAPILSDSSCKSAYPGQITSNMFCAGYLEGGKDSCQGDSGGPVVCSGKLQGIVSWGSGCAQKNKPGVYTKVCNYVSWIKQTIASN
Protocol: as §3, §4, §5, §6

Human plasma [3] = test: Human plasma anticoagulation, thrombin time (TT); type: biochemical; conditions: concentration required to double the thrombin time, linear extrapolation
Protocol: as §1, §2

t-PA = biological target: T4, t-PA (Homo sapiens, UniProt P00750); test: Serine protease selectivity, chromogenic substrate (Kass), t-PA; type: biochemical; conditions: substrate H-D-Ile-Pro-Arg-p-nitroanilide
T4 construct: purchased American Diagnostica, Greenwich, Conn
Protocol: as §3, §4, §5, §7

Human Thrombin = Human Thrombin (Homo sapiens, UniProt P00734); test: Inhibition of amidase activity of thrombin (Kass); type: biochemical; conditions: apparent association constant, mean over a range of concentrations
Protocol: as §3
The Kass value is the hypothetical equilibrium constant for the reaction between thrombin and the test compound (I). [drawing 54]
as §4

T2 sequence (P00747 581-810 limits assumed): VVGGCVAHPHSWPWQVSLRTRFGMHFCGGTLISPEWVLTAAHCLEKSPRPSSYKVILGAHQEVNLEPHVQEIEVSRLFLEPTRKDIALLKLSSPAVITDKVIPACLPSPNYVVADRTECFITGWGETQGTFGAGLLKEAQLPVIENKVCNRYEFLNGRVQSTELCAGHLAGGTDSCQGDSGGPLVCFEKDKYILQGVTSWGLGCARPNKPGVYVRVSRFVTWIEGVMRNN
T2 sequence (P00747 97-580 partner limits assumed): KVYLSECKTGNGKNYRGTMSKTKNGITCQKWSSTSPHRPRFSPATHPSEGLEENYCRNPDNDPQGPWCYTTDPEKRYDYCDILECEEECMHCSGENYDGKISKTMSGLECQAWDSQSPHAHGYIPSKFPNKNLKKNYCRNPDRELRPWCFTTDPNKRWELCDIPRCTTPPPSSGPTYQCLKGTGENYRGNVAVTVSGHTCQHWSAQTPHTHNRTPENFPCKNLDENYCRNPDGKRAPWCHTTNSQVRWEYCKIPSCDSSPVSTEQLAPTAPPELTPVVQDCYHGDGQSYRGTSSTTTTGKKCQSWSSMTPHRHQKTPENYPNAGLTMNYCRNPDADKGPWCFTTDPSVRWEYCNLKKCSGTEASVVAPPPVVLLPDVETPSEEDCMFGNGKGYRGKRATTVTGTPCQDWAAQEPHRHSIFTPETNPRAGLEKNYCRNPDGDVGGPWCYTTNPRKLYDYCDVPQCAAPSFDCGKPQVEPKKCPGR
T1 sequence (P00742 235-488 limits assumed): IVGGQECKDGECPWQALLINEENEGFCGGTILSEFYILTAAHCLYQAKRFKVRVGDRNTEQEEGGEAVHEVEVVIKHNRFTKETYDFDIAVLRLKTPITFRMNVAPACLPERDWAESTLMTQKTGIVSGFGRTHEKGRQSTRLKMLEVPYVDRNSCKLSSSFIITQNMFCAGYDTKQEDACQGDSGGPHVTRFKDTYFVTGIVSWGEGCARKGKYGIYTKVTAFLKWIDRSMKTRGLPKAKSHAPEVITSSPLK
T1 sequence (P00742 41-179 partner limits assumed): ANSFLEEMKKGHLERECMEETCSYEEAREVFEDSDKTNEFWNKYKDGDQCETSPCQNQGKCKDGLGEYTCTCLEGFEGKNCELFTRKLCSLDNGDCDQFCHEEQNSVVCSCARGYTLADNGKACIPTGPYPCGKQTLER
T4 sequence (P00750 36-562): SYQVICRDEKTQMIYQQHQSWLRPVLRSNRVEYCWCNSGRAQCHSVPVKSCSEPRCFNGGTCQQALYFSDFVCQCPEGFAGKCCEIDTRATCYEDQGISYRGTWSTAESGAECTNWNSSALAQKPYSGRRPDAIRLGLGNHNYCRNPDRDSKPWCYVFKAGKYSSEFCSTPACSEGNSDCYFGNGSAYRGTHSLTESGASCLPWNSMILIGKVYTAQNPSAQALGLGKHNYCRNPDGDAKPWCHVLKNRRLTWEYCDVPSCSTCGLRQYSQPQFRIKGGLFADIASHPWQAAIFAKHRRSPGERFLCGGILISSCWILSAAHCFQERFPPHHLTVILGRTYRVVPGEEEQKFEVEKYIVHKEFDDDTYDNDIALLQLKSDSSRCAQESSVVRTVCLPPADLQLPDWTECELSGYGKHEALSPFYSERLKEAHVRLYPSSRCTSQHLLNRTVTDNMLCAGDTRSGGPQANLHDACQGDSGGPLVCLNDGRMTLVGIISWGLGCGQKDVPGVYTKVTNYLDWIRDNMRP

| Enzyme Kass, Xa (factor Xa; HCl) [L/mol × 10^6] | Enzyme Kass, Plasmin (Plasmin; HCl) [L/mol × 10^6] | Enzyme Kass, Trypsin (Trypsin; HCl) [L/mol × 10^6] | Enzyme Kass, t-PA (t-PA; HCl) [L/mol × 10^6] | Enzyme Kass, Human Thrombin (Human Thrombin; HCl) [L/mol × 10^6] | Enzyme Kass, Xa (factor Xa) [L/mol × 10^6] | Enzyme Kass, Plasmin (Plasmin) [L/mol × 10^6] | Enzyme Kass, Trypsin (Trypsin) | Enzyme Kass, t-PA (t-PA) [L/mol × 10^6] | Enzyme Kass, Human Thrombin (Human Thrombin) [L/mol × 10^6] | SMILES | 2x Clotting time, APTT (Human plasma [1]; HCl) | 2x Clotting time, PT (Human plasma [2]; HCl) | 2x Clotting time, TT (Human plasma [3]; HCl) | 2x Clotting time, APTT (Human plasma [1]) | 2x Clotting time, PT (Human plasma [2]) | 2x Clotting time, TT (Human plasma [3]) |
| --- | --- | --- | --- | --- | --- | --- | --- | --- | --- | --- | --- | --- | --- | --- | --- | --- |
| – | – | – | – | – | 11.6 | 14.0 | 633 L/mol × 10^6 | – | 5.4 | CC(C)CC[C@H]1C[C@@H](C(=O)N[C@H](C=O)CCCNC(=N)N)N(C(=O)[C@H]2CC3CCCCC3CN2)C1.Cl.Cl (relative stereo) [Example 27, D-3-cis-Piq-Pro(4-cis-isoamyl)-ArgH.2 HCl] | – | – | – | 395 ng/mL | 1,232 ng/mL | 116 ng/mL |
| – | – | – | – | – | 2.53 | 11.3 | 718 L/mol × 10^6 | – | 15.6 | Cl.Cl.NC(N)=NCCCC(C=O)NC(=O)C1CC(Oc2ccccc2)CN1C(=O)C1CC2CCCCC2CN1 [Example 26, D-3-cis-Piq-Pro(4-cis-phenoxy)-ArgH.2 HCl] | – | – | – | 392 ng/mL | 1,322 ng/mL | 82 ng/mL |
| – | – | – | – | – | 0.14 | 0.27 | 20.30 L/mol × 10^6 | – | 0.41 | CC(C)CC[C@H]1C[C@@H](C(=O)N[C@H](C=O)CCCNC(=N)N)N(C(=O)C2NCCC3CCCCC32)C1.Cl.Cl (relative stereo) [Example 28, 1-Piq-Pro(4-cis-isoamyl)-ArgH.2 HCl] | – | – | – | 22,727 ng/mL | 43,401 ng/mL | 3,637 ng/mL |

More lines, now with the values behind:

| SMILES | Enzyme Kass, Xa (factor Xa; HCl) [L/mol × 10^6] | Enzyme Kass, Plasmin (Plasmin; HCl) [L/mol × 10^6] | Enzyme Kass, Trypsin (Trypsin; HCl) [L/mol × 10^6] | Enzyme Kass, t-PA (t-PA; HCl) [L/mol × 10^6] | Enzyme Kass, Human Thrombin (Human Thrombin; HCl) [L/mol × 10^6] | Enzyme Kass, Xa (factor Xa) [L/mol × 10^6] | Enzyme Kass, Plasmin (Plasmin) [L/mol × 10^6] | Enzyme Kass, Trypsin (Trypsin) | Enzyme Kass, t-PA (t-PA) [L/mol × 10^6] | Enzyme Kass, Human Thrombin (Human Thrombin) [L/mol × 10^6] | 2x Clotting time, APTT (Human plasma [1]; HCl) | 2x Clotting time, PT (Human plasma [2]; HCl) | 2x Clotting time, TT (Human plasma [3]; HCl) | 2x Clotting time, APTT (Human plasma [1]) | 2x Clotting time, PT (Human plasma [2]) | 2x Clotting time, TT (Human plasma [3]) |
| --- | --- | --- | --- | --- | --- | --- | --- | --- | --- | --- | --- | --- | --- | --- | --- | --- |
| Cl.Cl.N=C(N)NCCCC(C=O)NC(=O)C1CC2CCCCC2N1C(=O)C1NCCC2CCCCC21 [Example 21, L-1-cis-Piq-cis-Ohi-ArgH.2 HCl] | 0.03 | 0.20 | 3.6 | 0.001 | 3.1 | – | – | – | – | – | 16,234 ng/mL | 30,776 ng/mL | 1,199 ng/mL | – | – | – |
| Cl.Cl.N=C(N)NCCC[C@@H](C=O)NC(=O)[C@@H]1C[C@H](Oc2cccc(N)c2)CN1C(=O)[C@H]1CCCCN1 (relative stereo) [Example 13, D-hPro-Pro(4-cis-(3-NH2-phenoxy))-ArgH.2 HCl] | – | – | – | – | – | 0.58 | 0.65 | 22 L/mol × 10^6 | 0.033 | 2.1 | – | – | – | 2,900 ng/mL | 9,100 ng/mL | 490 ng/mL |
| CCS(=O)(=O)N[C@H](C(=O)N1C[C@@H](Oc2ccccc2)C[C@H]1C(=O)N[C@H](C=O)CCCNC(=N)N)c1ccccc1.Cl (relative stereo) [Example 16, EtSO2 -L-Phg-Pro(4-cis-phenoxy)-ArgH.HCl] | – | – | – | – | – | 6.8 | 4.8 | 180 L/mol × 10^6 | 0.26 | 43 | – | – | – | 2,400 ng/mL | 4,900 ng/mL | 120 ng/mL |
| Cl.Cl.N=C(N)NCCCC(C=O)NC(=O)C1CC2CCCCC2N1C(=O)C1CC2CCCCC2CN1 [Example 25, D-3-cis-Piq-cis-Ohi-ArgH.2 HCl] | – | – | – | – | – | 0.67 | 12.4 | 1,040 L/mol × 10^6 | – | 82 | – | – | – | 548 ng/mL | 1,232 ng/mL | 25 ng/mL |
| CC(=O)Nc1cccc(O[C@H]2C[C@@H](C(=O)N[C@H](C=O)CCCNC(=N)N)N(C(=O)[C@H]3CCCCN3)C2)c1.Cl.Cl (relative stereo) [Example 12, D-hPro-Pro(4-cis-(3-AcNH-phenoxy))-ArgH.2 HCl] | – | – | – | – | – | 1.2 | 1.1 | 56 L/mol × 10^6 | 0.015 | 6.1 | – | – | – | 1,300 ng/mL | 4,100 ng/mL | 210 ng/mL |

From patent publication US5599793A, “Antithromobotic agents” (Eli Lilly and Company, priority 1995, dated 1997)
